Type in all cases: cell-based
For one experiment, the target named is human GLP1R (Homo sapiens, UniProt P43220). The experiment is described as follows: Human GLP1R DERET internalization assay. The note with it: HEK293-SNAP-hGLP1R-GloSensor cells; for EC50: mean n=2; for Emax: relative to GLP1(7-36). As to the method: (§1) Compounds 1 to 31 were tested in the following cellular assays that measure the intracellular cAMP concentration, beta-arrestin recruitment and receptor internalization. The cAMP is generated by the activation of GLP1R. The cAMP data obtained is shown in Table 1 (where S.E.M. is included, mean n=3 independent experiments+/−S.E.M). Beta-arrestin is recruited upon activation of GLP1R and the data obtained are shown in Table 2 (mean n=2 independent experiments, +/−S.D). The extent to which the GLP1R is internalized into the cell and away from the plasma membrane following activation is also shown in Table 2 (mean n=2 independent experiments, +/−S.D). EC50 for each assay is defined as the concentration of the compound that leads to half of the maximum response (after baseline correction). Emax is defined as the maximum response observed for the test compound, normalized to the maximum response observed for the endogenous ligand (GLP1(7-36)) to GLP1R.
The extent to which agonists internalize the human GLP1R was determined based on an optimized version of a RealTime FRET-based ‘DERET’ (Dissociation Enhanced Resonance Energy Transfer) assay. The technology relies on labeling of the SNAP-tagged GPCR with a SNAP-Lumi-Terbium (donor fluorophore, Cisbio, cat #SSNPTBD). The compounds are incubated with the cells over-expressing the GPCR of interest in the presence of an excess of fluorescein (acceptor fluorophore). When the GPCR is on the cell surface, the donor signal is quenched by the acceptor and the donor/acceptor ratio is low. As the GPCR internalizes, the donor signal is no longer quenched, and the acceptor is no longer excited so the donor/acceptor ratio increases.
HEK293-SNAP-hGLP1R-GloSensor cells (stably overexpressing SNAP-tagged hGLP1R) were seeded overnight in white 384-well poly-D-Lysine coated plates (Greiner Bio One, cat #781945) in regular DMEM growth medium (Gibco, cat #11965-092, 10% heat-inactivated FBS, 10 mM HEPES, 1× penicillin/streptomycin, 0.5 mg/mL geneticin (Gibco, cat #10131-035) and 0.25 mg/mL hygromycin B (Invitrogen, cat #10687010). On the assay day, cell medium was removed and 100 nM SNAP-Lumi-Tb reagent was added in Opti-MEM solution. The cells were incubated at 37° C. for 1 h. Cells were washed using a plate washer in assay buffer [1×HBSS (10× Gibco, cat #14065-056), 20 mM Hepes (Gibco, cat #15630-080), 1 mM CaCl2 (Fluka, cat #21114-1L), 1 mM MgCl2 (Ambion, cat #AM9530G) pH7.4], and 20 μL buffer with 0.1% BSA was added to each well. After leaving cells to equilibrate for ˜15 min at 37° C., 10 μL of Fluorescein (sodium salt, Sigma, cat #F6377, diluted in buffer) was added at 25 μM final concentration. To generate triplicate dose response curves, compounds were serially diluted 3-fold in assay buffer, then added to the cell assay plate to a final volume of 40 μL and final top concentrations starting at 30 μM. In the same plate and assay buffer as the tested compounds, a GLP1 (7-36) peptide (Bachem, cat #H-6795) control curve was included at a final top concentration of 1 μM in order to establish EC100. EC0 wells with buffer only were also included. The plate FRET fluorescence was measured immediately using a Perkin Elmer Envision with LANCE/DELFIA D400 single mirror, excitation filter X320, and emission filters M615_203 (donor emission) and M515 (acceptor emission), and then measured every 30 min. […] Plates were kept at 37° C. between reads. Data was expressed as the ratio of donor/acceptor emissions using Microsoft Excel and plotted in GraphPad Prism. In order to determine EC50 and Emax for internalization, data was calculated and expressed as percent of the GLP1 (7-36) EC100 control wells: [(sample signal−mean EC0 signal)/(mean EC100 of GLP1 (7-36) signal−mean EC0 signal)]*100 using Microsoft Excel. Curve fitting for EC50 determinations was performed using GraphPad Prism. The 4-parameter logistic model, Hill slope was used:
Y=Bottom+(Top−Bottom)/(1+10^((Log EC50−X)*Hill Slope)), […]

The target in experiment [1] is T1, human GLP1R (hGLP1R) (Homo sapiens, UniProt P43220). The experiment is described as follows: Human GLP1R β-arrestin recruitment assay (PathHunter). The note with it: CHO-hGLP1R-β-arrestin cells; for EC50: mean n=2, read-out: Beta-Arrestin assay EC50 Mean; for Emax: relative to GLP1(7-36), read-out: Beta-Arrestin assay Emax. The arrangement: insert synthesized by GeneArt 93-0164 (cells); 93-0491 (vector bundle). The procedure:
as §1
The extent to which agonists recruited β-arrestin was measured using the PathHunter® β-arrestin assay (DiscoverX). This assay measures binding of β-arrestin to the receptor using an enzyme complementation approach. […] When β-arrestin is recruited to the receptor the enzyme becomes active and generates luminescence in the presence of a chemiluminescent substrate (PathHunter® Detection Kit, DiscoverX cat #93-0001). Luminescence can be measured on a relevant detector. CHO-hGLP1R-β-arrestin cells stably overexpressing hGLP1R with Prolink tag and β-arrestin with EA tag were seeded at 20 μL per well in white 384-well poly-D-Lysine coated plates (Greiner Bio One, cat #781945) in Plating Reagent 2 (DiscoverX, cat #93-0563R2A), and incubated overnight at 37° C., 5% CO2 with humidity. The following day, agonists were prepared at 5 times the final required concentration. To generate triplicate dose response curves, compounds were serially diluted 3-fold in assay buffer (HBSS, 10 mM Hepes and 0.1% BSA), then added to the cell assay plate to a final volume of 25 μL and final top concentrations starting at 30 μM. In the same plate and assay buffer as the tested compounds, were EC100 control wells containing GLP1 (7-36) peptide (Bachem, cat #H-6795) at a final concentration of 1 μM and also EC0 control wells containing no compound. The plate was incubated at 37° C., 5% CO2 with humidity for 2 h after adding the compounds to the cells. Then the detection reagent was prepared (19 parts cell assay buffer, 5 parts substrate reagent 1 and 1 part substrate reagent 2 as per manufacturers recommendations, DiscoverX cat #93-0001), and 12 μL were added per well to the cell assay plate. The plate was incubated for an additional hour in the dark at RT. Luminescence was then measured with an Envision 2104 Multilabel reader with “TRF Light Unit, 337 nm” (Perkin Elmer) using the Ultra-Sensitive protocol setting “384-well US luminescence detector” with the 384-well luminescence aperture, 0.1 sec per well. β-arrestin recruitment was calculated and expressed as percent of the GLP1 (7-36) EC100 control wells: [(sample signal−mean EC0 signal)/(mean EC100 of GLP1 (7-36) signal−mean EC0 signal)]*100 using Microsoft Excel. Curve fitting for EC50 determinations was performed using GraphPad Prism. The 4-parameter logistic model, Hill slope was used: Y=Bottom+(Top−Bottom)/(1+10^((Log EC50−X)*Hill Slope)), where Y is the functional response; X is the compound concentration; bottom is A0 or the minimum value (at 0 dose); top is Ainf or the maximum value (at infinite dose); EC50 is the point of inflection (i.e. the point on the sigmoid shaped curve halfway between A0 and Ainf). The EC50 value was calculated in μM. Emax is the maximal activity detected within the concentration range, derived from the fitted curve relative to GLP1(7-36). […]

Experiment [2] deals with T1, human GLP1R (hGLP1R). The experiment can be described thus: Human GLP1R cAMP agonist assay (GloSensor). The note with it: HEK293-SNAP-hGLP1R-GloSensor cells; for Emax: cAMP, normalized to GLP1(7-36) maximum response, read-out: Emax mean; for EC50: intracellular cAMP, mean n=3 where SEM is given. The method, boiled down: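 HEK293 cells stably expressing SNAP-tagged hGLP1R and the GloSensor-22F cAMP luciferase biosensor, pre-loaded 2 h with substrate, then exposed 12 min at rt to compound (30–0.06 μM, 0.5 mM IBMX, 0.1% BSA). Luminescence normalized to 2 nM GLP1(7-36); EC50 and Emax from 4-parameter logistic fit.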

T1 sequence (P43220 24-463): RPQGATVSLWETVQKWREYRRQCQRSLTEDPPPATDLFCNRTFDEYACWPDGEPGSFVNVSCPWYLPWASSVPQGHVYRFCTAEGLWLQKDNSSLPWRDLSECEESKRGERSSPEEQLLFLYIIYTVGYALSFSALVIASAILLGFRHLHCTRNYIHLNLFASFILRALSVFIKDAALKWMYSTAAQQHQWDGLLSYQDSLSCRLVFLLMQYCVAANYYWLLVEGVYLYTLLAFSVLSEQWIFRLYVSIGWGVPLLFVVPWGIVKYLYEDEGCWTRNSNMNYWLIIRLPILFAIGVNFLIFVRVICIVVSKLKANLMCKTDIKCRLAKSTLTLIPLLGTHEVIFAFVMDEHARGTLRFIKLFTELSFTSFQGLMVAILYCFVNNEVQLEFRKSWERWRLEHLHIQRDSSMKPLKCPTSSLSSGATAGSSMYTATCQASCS
Chain of human GLP1R (P43220 24-463): as above

In general, EC50 refers to the concentration needed to bring the measured effect to its halfway point. What is called Emax is the maximal effect, on the per cent scale that the assay sets. As for `C[C@]1(c2ccc(Cl)cc2F)Oc2cccc(C3CCN(Cc4nc5ccc(C(=O)O)cc5n4C[C@@H]4CCO4)CC3)c2O1` [Reference compound, 2-((4-((S)-2-(4-chloro-2-fluorophenyl)-2-methylbenzo[d][1,3]dioxol-4-yl)piperidin-1-yl)methyl)-1-(((S)-oxetan-2-yl)methyl)-1H-benzo[d]imidazole-6-carboxylic acid, reference compound], at human GLP1R, the EC50 was determined as 15 nM and the Emax was 87%. At human GLP1R (hGLP1R) [1], the EC50 is 123 nM and the Emax turned out to be 27%.
Consider `C[C@]1(c2ccc(Cl)cc2F)Oc2cccc(C3CCN(Cc4nc(C(F)(F)F)c(/C=C/C(=O)O)n4C[C@@H]4CCO4)CC3)c2O1` [Compound C-8, (E)-3-(2-((4-((S)-2-(4-chloro-2-fluorophenyl)-2-methylbenzo[d][1,3]dioxol-4-yl)piperidin-1-yl)methyl)-1-(((S)-oxetan-2-yl)methyl)-4-(trifluoromethyl)-1H-imidazol-5-yl)acrylic acid], for which, at human GLP1R, the EC50 was over 30000 nM and the Emax was found to be 9.5%. In addition, at human GLP1R (hGLP1R) [2], the Emax is 108% and it took 0.0606 nM to reach a half-maximal effect (EC50).
The like results for `Cc1c(-c2cccc(C(=O)O)c2)nc(CN2CCC(c3cccc4c3O[C@@](C)(c3ccc(Cl)cc3F)O4)CC2)n1C[C@@H]1CCO1` [Compound C-10, 3-(2-((4-((S)-2-(4-chloro-2-fluorophenyl)-2-methylbenzo[d][1,3]dioxol-4-yl)piperidin-1-yl)methyl)-5-methyl-1-(((S)-oxetan-2-yl)methyl)-1H-imidazol-4-yl)benzoic acid] were, in that order, over 30000 nM, 2%, 107% and 0.898 nM.
Turning to `Cc1nc(CN2CCC(c3cccc4c3O[C@@](C)(c3ccc(Cl)cc3F)O4)CC2)n(C[C@@H]2CCO2)c1C(=O)O` [Compound C-3, 2-((4-((S)-2-(4-chloro-2-fluorophenyl)-2-methylbenzo[d][1,3]dioxol-4-yl)piperidin-1-yl)methyl)-4-methyl-1-(((S)-oxetan-2-yl)methyl)-1H-imidazole-5-carboxylic acid], the figures for the EC50 on human GLP1R (hGLP1R) [1] and on human GLP1R (hGLP1R) [2] were over 30000 nM and 1.65 nM, respectively. In addition, the Emax on human GLP1R (hGLP1R) [1] is 0%; on human GLP1R (hGLP1R) [2] it was 108%.

The record behind these values is US20240182456A1, “2-((4-((S)-2-(4-CHLORO-2-FLUOROPHENYL)-2-METHYLBENZO[D][1,3]DIOXOL-4-YL)PIPERIDIN-1-YL)METHYL)-1-(((S)-OXETAN-2-YL)METHYL)-1H-IMIDAZOLE DERIVATIVES AS ACTIVATORS OF THE GLP1 RECEPTOR FOR THE TREATMENT OF OBESITY” (Novartis AG, priority 2021, published 2024).
